Data set [1] can be described thus: Inhibition of Escherichia coli beta-lactamase AmpC.
Data set [2] is described as follows: Inhibition of alpha-chymotrypsin (unknown origin). Further details: species or system Homo sapiens.
For data set [3], the species on record is Homo sapiens. The data set is described as follows: Binding affinity to alpha-chymotrypsin (unknown origin) at 1 mM at pH 5.8 by 11B-NMR analysis in presence of D-fructose.
Data set [4] in a line: Dissociation constant, pKa of the compound. It counts as physicochemical.
The species named for data set [5] is Homo sapiens. The data set is described as follows: Binding affinity to alpha-chymotrypsin (unknown origin) at 5 mM by [1H] waterLOGSY NMR analysis in presence of D-fructose.
For data set [6], the species on record is Homo sapiens. The data set is described as follows: Binding affinity to alpha-chymotrypsin (unknown origin) at 5 mM by [1H] waterLOGSY NMR analysis in presence of L-fructose.
For data set [7], the species on record is Homo sapiens. As to the kind of experiment: Inhibition of alpha-chymotrypsin (unknown origin) using succinyl-Ala-Ala-Pro-Phe-para-nitroanilide as substrate assessed as residual activity at 25 uM after 10 mins in presence of D-fructose relative to control.
Data set [8] is filed under the species Homo sapiens. The data set is described as follows: Inhibition of alpha-chymotrypsin (unknown origin) using succinyl-Ala-Ala-Pro-Phe-para-nitroanilide as substrate assessed as residual activity at 25 uM after 10 mins in presence of D-glucose relative to control.
Data set [9] is filed under the species Homo sapiens. The data set is described as follows: Inhibition of alpha-chymotrypsin (unknown origin) using succinyl-Ala-Ala-Pro-Phe-para-nitroanilide as substrate assessed as residual activity at 25 uM after 10 mins in presence of L-fructose relative to control.
Data set [10] is filed under the species Homo sapiens. The data set is described as follows: Binding affinity to alpha-chymotrypsin (unknown origin) at 1 mM at pH 5.8 by 11B-NMR analysis in presence of L-sorbose.
For data set [11], the species on record is Homo sapiens. As to the kind of experiment: Binding affinity to alpha-chymotrypsin (unknown origin) at 1 mM at pH 5.8 by 11B-NMR analysis.
Data set [12] is filed under the species Homo sapiens. As to the kind of experiment: Binding affinity to alpha-chymotrypsin (unknown origin) at 1 mM at pH 5.8 by 11B-NMR analysis in presence of D-sorbose.
The species entered for data set [13] is Homo sapiens. As to the kind of experiment: Inhibition of alpha-chymotrypsin (unknown origin) using succinyl-Ala-Ala-Pro-Phe-para-nitroanilide as substrate assessed as residual activity at 25 uM after 10 mins in presence of L-glucose relative to control.
The species entered for data set [14] is Homo sapiens. As to the kind of experiment: Binding affinity to alpha-chymotrypsin (unknown origin) at 1 mM at pH 5.8 by 11B-NMR analysis in presence of L-fructose.

We go through six molecules from ChEMBL document CHEMBL3217490, “An approach to enzyme inhibition employing reversible boronate ester formation” (Medchemcomm, 2011).

Activity calls are given as the source filed them. No cut-off for these calls is given here.

Usually IC50 stands for the concentration at which inhibition is half-maximal. What is called pKa is the negative logarithm of the acid dissociation constant. A low value points to a group that gives up its proton readily. For the molecule `OB(O)c1cc2ccccc2o1`, the IC50 in [1] amounted to 0.22 µM; in [2], 14 µM. Also, the outcome in the data set filed under Homo sapiens [3] and in the data set filed under Homo sapiens [5] was Active. This molecule also yielded a pKa in data set [4] of 7.3. Besides, the result in the data set listed under Homo sapiens [6] was inactive.

`OB(O)c1cc2ccccc2s1`: the Activity is 78% in the data set filed under Homo sapiens [7], 97% in the data set listed under Homo sapiens [8], 97% in the data set listed under Homo sapiens [9] and 94% in the data set listed under Homo sapiens [13]. In data set [2], this molecule displayed an IC50 of 5 µM. For the same molecule, the outcome in the data set listed under Homo sapiens [10], in the data set listed under Homo sapiens [3], in the data set listed under Homo sapiens [11], in the data set listed under Homo sapiens [12], in the data set listed under Homo sapiens [5] and in the data set filed under Homo sapiens [14] was Active. For the same molecule, the pKa in [4] was 7.44. Moreover, the outcome in the data set filed under Homo sapiens [6] was inactive.

In data set [4], `CCB(O)O` had a pKa of 10.

`OB(O)c1ccc(O)cc1`: the pKa in [4] stood at 10.

`OB(O)O` [BORIC ACID]: the pKa in data set [4] was found to be 10.

The molecule `OB(O)c1ccc2ccccc2c1` came in with a pKa in data set [4] of 8.88.
